PubChem BioAssay (NCI)
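Values below derive from 48-hour exposures of cells grown in 96-well plates, with endpoints linearly interpolated between the two concentrations bracketing the appropriate inhibition level. GI50 = concentration required for 50% inhibition of growth. TGI marks complete inhibition of growth.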

Tests used:
Experiment in all cases: NCI anticancer screen, dose series, 48 h
OVCAR-4 ovarian = test system: OVCAR-4 ovarian
BT-549 breast = test system: BT-549 breast
MALME-3M melanoma = test system: MALME-3M melanoma
CCRF-CEM leukemia = test system: CCRF-CEM leukemia
MDA-MB-231 breast = test system: MDA-MB-231 breast
UACC-62 melanoma = test system: UACC-62 melanoma
SK-MEL-28 melanoma = test system: SK-MEL-28 melanoma
A549 NSCLC = test system: A549 NSCLC
MDA-MB-435 = test system: MDA-MB-435
MCF7 breast = test system: MCF7 breast
OVCAR-5 ovarian = test system: OVCAR-5 ovarian
NCI-H460 lung = test system: NCI-H460 lung
CAKI-1 renal = test system: CAKI-1 renal
786-0 renal = test system: 786-0 renal
NCI/ADR-RES ovarian = test system: NCI/ADR-RES ovarian
SK-OV-3 ovarian = test system: SK-OV-3 ovarian
MOLT-4 leukemia = test system: MOLT-4 leukemia
EKVX NSCLC = test system: EKVX NSCLC
U251 CNS = test system: U251 CNS
OVCAR-8 ovarian = test system: OVCAR-8 ovarian
PC-3 prostate = test system: PC-3 prostate
SK-MEL-5 melanoma = test system: SK-MEL-5 melanoma
SN12C renal = test system: SN12C renal
T-47D breast = test system: T-47D breast
DU-145 prostate = test system: DU-145 prostate
COLO 205 colon = test system: COLO 205 colon
M14 melanoma = test system: M14 melanoma
K-562 leukemia = test system: K-562 leukemia
HL-60(TB) leukemia = test system: HL-60(TB) leukemia
A498 renal = test system: A498 renal
HCT-15 colon = test system: HCT-15 colon
SNB-19 CNS = test system: SNB-19 CNS
LOX IMVI melanoma = test system: LOX IMVI melanoma
SK-MEL-2 melanoma = test system: SK-MEL-2 melanoma
HT29 colon = test system: HT29 colon
SW-620 colon = test system: SW-620 colon
ACHN renal = test system: ACHN renal
UO-31 renal = test system: UO-31 renal
NCI-H522 lung = test system: NCI-H522 lung
SF-295 CNS = test system: SF-295 CNS
SF-539 CNS = test system: SF-539 CNS
IGROV1 ovarian = test system: IGROV1 ovarian
UACC-257 melanoma = test system: UACC-257 melanoma
SF-268 CNS = test system: SF-268 CNS
HCC-2998 colon = test system: HCC-2998 colon
KM12 colon = test system: KM12 colon
HCT-116 colon = test system: HCT-116 colon
RPMI-8226 leukemia = test system: RPMI-8226 leukemia
HOP-92 NSCLC = test system: HOP-92 NSCLC
TK-10 renal = test system: TK-10 renal
OVCAR-3 ovarian = test system: OVCAR-3 ovarian
NCI-H226 lung = test system: NCI-H226 lung
HS 578T breast = test system: HS 578T breast
RXF 393 renal = test system: RXF 393 renal
NCI-H23 lung = test system: NCI-H23 lung
SNB-75 CNS = test system: SNB-75 CNS
SR leukemia = test system: SR leukemia
HOP-62 NSCLC = test system: HOP-62 NSCLC

## N#CC1(C(N)=O)C(c2ccc(Cl)cc2)CC(=O)CC1c1ccc(Cl)cc1 (configuration not stated)
OVCAR-4 ovarian
  GI50: 17.5 µM
  TGI: 35.6 µM
BT-549 breast
  GI50: 14.6 µM
  TGI: 27.7 µM
MALME-3M melanoma
  GI50: 15.7 µM
  TGI: 33.4 µM
CCRF-CEM leukemia
  GI50: 21.5 µM
  TGI: 63.5 µM
MDA-MB-231 breast
  GI50: 13.8 µM
  TGI: 28.9 µM
UACC-62 melanoma
  GI50: 13.6 µM
  TGI: 27.2 µM
SK-MEL-28 melanoma
  GI50: 16.6 µM
  TGI: 30.6 µM
A549 NSCLC
  GI50: 18.1 µM
  TGI: 39.8 µM
MDA-MB-435
  GI50: 16.3 µM
  TGI: 33.2 µM
MCF7 breast
  GI50: 17.4 µM
  TGI: 31.7 µM
OVCAR-5 ovarian
  GI50: 16.4 µM
  TGI: 33.1 µM
NCI-H460 lung
  GI50: 17.4 µM
  TGI: 33.4 µM
CAKI-1 renal
  GI50: 20.4 µM
  TGI: 55.9 µM
786-0 renal
  GI50: 17.1 µM
  TGI: 30.8 µM
NCI/ADR-RES ovarian
  GI50: 39.7 µM
  TGI: > 100 µM
SK-OV-3 ovarian
  GI50: 20.3 µM
  TGI: 45 µM
MOLT-4 leukemia
  GI50: 17.1 µM
  TGI: 54.3 µM
EKVX NSCLC
  GI50: 15.5 µM
  TGI: 32.7 µM
U251 CNS
  GI50: 16.6 µM
  TGI: 31.6 µM
OVCAR-8 ovarian
  GI50: 18.4 µM
  TGI: 42.2 µM
PC-3 prostate
  GI50: 15.9 µM
  TGI: 33.7 µM
SK-MEL-5 melanoma
  GI50: 17.4 µM
  TGI: 31.1 µM
SN12C renal
  GI50: 19.4 µM
  TGI: 35.3 µM
T-47D breast
  GI50: 17.4 µM
  TGI: 41.8 µM
DU-145 prostate
  GI50: 15.6 µM
  TGI: 29 µM
COLO 205 colon
  GI50: 15.6 µM
  TGI: 30.4 µM
M14 melanoma
  GI50: 16.2 µM
  TGI: 29.7 µM
K-562 leukemia
  GI50: 31.4 µM
  TGI: > 100 µM
HL-60(TB) leukemia
  GI50: 20.2 µM
  TGI: 51.6 µM
A498 renal
  GI50: 14.7 µM
  TGI: 27.8 µM
HCT-15 colon
  GI50: 16.8 µM
  TGI: 34.3 µM
SNB-19 CNS
  GI50: 17.7 µM
  TGI: 33.5 µM
LOX IMVI melanoma
  GI50: 17 µM
  TGI: 33.3 µM
SK-MEL-2 melanoma
  GI50: 16.1 µM
  TGI: 31.1 µM
HT29 colon
  GI50: 15.5 µM
  TGI: 29.5 µM
SW-620 colon
  GI50: 17.2 µM
  TGI: 31.1 µM
ACHN renal
  GI50: 21.8 µM
  TGI: 57.8 µM
UO-31 renal
  GI50: 16.3 µM
  TGI: 32 µM
NCI-H522 lung
  GI50: 14.2 µM
  TGI: 29.5 µM
SF-295 CNS
  GI50: 15 µM
  TGI: 33.4 µM
SF-539 CNS
  GI50: 18.4 µM
  TGI: 34.5 µM
IGROV1 ovarian
  GI50: 18.1 µM
  TGI: 33.7 µM
UACC-257 melanoma
  GI50: 17.5 µM
  TGI: 36 µM
SF-268 CNS
  GI50: 18.5 µM
  TGI: 34.3 µM
HCC-2998 colon
  GI50: 14.8 µM
  TGI: 29.9 µM
KM12 colon
  GI50: 19.4 µM
  TGI: 43.9 µM
HCT-116 colon
  GI50: 14.8 µM
  TGI: 28 µM
RPMI-8226 leukemia
  GI50: 18.1 µM
  TGI: 50.7 µM
HOP-92 NSCLC
  GI50: 16.4 µM
  TGI: 32.1 µM
TK-10 renal
  GI50: 17.1 µM
  TGI: 39.5 µM
OVCAR-3 ovarian
  GI50: 15.8 µM
  TGI: 33.4 µM
NCI-H226 lung
  GI50: 16 µM
  TGI: 31.6 µM
HS 578T breast
  GI50: 23.3 µM
  TGI: 61.6 µM

## FC(F)(F)c1ccc(-c2cnc(-c3ncon3)nc2NC2CCCCCC2)cc1
OVCAR-4 ovarian
  GI50: 37.2 µM
  TGI: > 100 µM
BT-549 breast
  GI50: 38.5 µM
  TGI: > 100 µM
MALME-3M melanoma
  GI50: 49.8 µM
  TGI: > 100 µM
CCRF-CEM leukemia
  GI50: 22.9 µM
  TGI: 60.4 µM
MDA-MB-231 breast
  GI50: 22.5 µM
  TGI: 89 µM
UACC-62 melanoma
  GI50: 48.6 µM
  TGI: > 100 µM
SK-MEL-28 melanoma
  GI50: 99.2 µM
  TGI: > 100 µM
A549 NSCLC
  GI50: 38 µM
  TGI: > 100 µM
MDA-MB-435
  GI50: 71.3 µM
  TGI: > 100 µM
MCF7 breast
  GI50: 31.6 µM
  TGI: > 100 µM
OVCAR-5 ovarian
  GI50: > 100 µM
  TGI: > 100 µM
NCI-H460 lung
  GI50: 37.2 µM
  TGI: > 100 µM
CAKI-1 renal
  GI50: 67.9 µM
  TGI: > 100 µM
786-0 renal
  GI50: 63.6 µM
  TGI: > 100 µM
NCI/ADR-RES ovarian
  GI50: 35.3 µM
  TGI: > 100 µM
SK-OV-3 ovarian
  GI50: > 100 µM
  TGI: > 100 µM
MOLT-4 leukemia
  GI50: 19.8 µM
  TGI: 55 µM
OVCAR-8 ovarian
  GI50: 32.2 µM
  TGI: > 100 µM
PC-3 prostate
  GI50: 24.6 µM
  TGI: 86.5 µM
SK-MEL-5 melanoma
  GI50: 40.7 µM
  TGI: > 100 µM
SN12C renal
  GI50: 21.4 µM
  TGI: 63 µM
T-47D breast
  GI50: 25.6 µM
  TGI: 87.3 µM
RXF 393 renal
  GI50: 28.9 µM
  TGI: > 100 µM
DU-145 prostate
  GI50: 63.3 µM
  TGI: > 100 µM
COLO 205 colon
  GI50: 27.7 µM
  TGI: 84.8 µM
M14 melanoma
  GI50: 56.3 µM
  TGI: > 100 µM
K-562 leukemia
  GI50: 34.8 µM
  TGI: > 100 µM
HL-60(TB) leukemia
  GI50: 22.3 µM
  TGI: 48 µM
A498 renal
  GI50: 42.9 µM
  TGI: > 100 µM
HCT-15 colon
  GI50: 34.3 µM
  TGI: > 100 µM
SNB-19 CNS
  GI50: 29.2 µM
  TGI: > 100 µM
HT29 colon
  GI50: 34.7 µM
  TGI: > 100 µM
SW-620 colon
  GI50: 43.3 µM
  TGI: > 100 µM
ACHN renal
  GI50: 48.6 µM
  TGI: > 100 µM
UO-31 renal
  GI50: 26.4 µM
  TGI: > 100 µM
NCI-H23 lung
  GI50: 37 µM
  TGI: > 100 µM
NCI-H522 lung
  GI50: 14.2 µM
  TGI: 82.6 µM
SF-295 CNS
  GI50: 34.5 µM
  TGI: > 100 µM
SF-539 CNS
  GI50: > 100 µM
  TGI: > 100 µM
IGROV1 ovarian
  GI50: 52.5 µM
  TGI: > 100 µM
UACC-257 melanoma
  GI50: 53.2 µM
  TGI: > 100 µM
SF-268 CNS
  GI50: 64 µM
  TGI: > 100 µM
HCC-2998 colon
  GI50: 56.6 µM
  TGI: > 100 µM
KM12 colon
  GI50: 36.3 µM
  TGI: > 100 µM
HCT-116 colon
  GI50: 33.9 µM
  TGI: > 100 µM
SNB-75 CNS
  GI50: 50.5 µM
  TGI: > 100 µM
RPMI-8226 leukemia
  GI50: 18.4 µM
  TGI: 49.3 µM
SR leukemia
  GI50: 20.4 µM
  TGI: 56.8 µM
HOP-62 NSCLC
  GI50: 76.8 µM
  TGI: > 100 µM
TK-10 renal
  GI50: > 100 µM
  TGI: > 100 µM
OVCAR-3 ovarian
  GI50: 36.8 µM
  TGI: > 100 µM
NCI-H226 lung
  GI50: 43.1 µM
  TGI: > 100 µM
HS 578T breast
  GI50: 32.1 µM
  TGI: > 100 µM
